Reference: patent US20250206721A1, “Prostaglandin Receptor EP2 Antagonists, Derivatives, and Uses Related Thereto” (Emory University, priority 2019, published 2025)
≈ marks a conversion by molar mass, not a printed value. Counter-ions that a name gives are not always drawn. Marks after values point to notes of the source that are not given here.

Key:
[1] = pH 2
[2] = Kinetic aqueous solubility in PBS by nephelometry; details: PBS buffer (pH 7.4) with 1% DMSO, nephelometry
[3] = molecular target: human IP receptor (Homo sapiens, UniProt P43119); test: Cell-based cAMP TR-FRET assay on IP (agonist iloprost); details: selectivity index IP KB/EP2 KB, fold
Chain of human IP receptor (P43119 whole entry): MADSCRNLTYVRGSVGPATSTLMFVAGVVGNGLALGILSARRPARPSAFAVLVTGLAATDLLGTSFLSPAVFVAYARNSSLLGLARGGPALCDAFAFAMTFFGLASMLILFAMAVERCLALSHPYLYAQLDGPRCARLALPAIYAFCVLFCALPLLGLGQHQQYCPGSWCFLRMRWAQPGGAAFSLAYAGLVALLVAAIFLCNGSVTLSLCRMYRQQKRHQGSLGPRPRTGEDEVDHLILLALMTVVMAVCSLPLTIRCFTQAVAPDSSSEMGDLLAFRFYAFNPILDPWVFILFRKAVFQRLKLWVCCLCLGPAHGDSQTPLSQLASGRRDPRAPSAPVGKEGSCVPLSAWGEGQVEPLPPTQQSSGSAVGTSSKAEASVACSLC

[4] = Thermodynamic shake flask solubility in neat water
[5] = in vivo; details: C57BL/6, mouse, ip, 10 mg/kg
[6] = Mouse liver microsomal (MLM) stability
[7] = molecular target: human EP4 receptor (Homo sapiens, UniProt P35408); test: Cell-based cAMP TR-FRET assay on EP4 (agonist PGE2); details: selectivity index EP4 KB/EP2 KB, fold
Chain of human EP4 receptor (P35408 whole entry): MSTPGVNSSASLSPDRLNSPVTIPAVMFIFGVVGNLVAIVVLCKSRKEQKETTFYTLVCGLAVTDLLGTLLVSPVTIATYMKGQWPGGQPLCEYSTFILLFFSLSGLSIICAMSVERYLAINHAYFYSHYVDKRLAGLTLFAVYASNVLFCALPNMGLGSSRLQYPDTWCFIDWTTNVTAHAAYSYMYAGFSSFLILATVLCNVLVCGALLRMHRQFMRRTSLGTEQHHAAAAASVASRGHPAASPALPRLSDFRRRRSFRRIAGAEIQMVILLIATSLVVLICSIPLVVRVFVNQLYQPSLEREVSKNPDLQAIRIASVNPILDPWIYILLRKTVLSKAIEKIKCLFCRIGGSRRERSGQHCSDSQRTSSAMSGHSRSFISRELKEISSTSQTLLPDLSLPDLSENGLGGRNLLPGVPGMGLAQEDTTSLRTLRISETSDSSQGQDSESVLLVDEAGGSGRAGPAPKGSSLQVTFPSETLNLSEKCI

[8] = molecular target: T1, human EP2 receptor (Homo sapiens, UniProt P43116); test: Cell-based cAMP TR-FRET assay, Schild KB on EP2; details: for Kb: Schild KB, agonist PGE2, antagonist concentration 1 μM, C6G cells expressing human EP2; for fold less potent than equivalent derivative: 11a vs 8b, 11b vs 8g, 11c vs 8f
T1 construct: expressed in transfected cells
T1 sequence (P43116 whole entry): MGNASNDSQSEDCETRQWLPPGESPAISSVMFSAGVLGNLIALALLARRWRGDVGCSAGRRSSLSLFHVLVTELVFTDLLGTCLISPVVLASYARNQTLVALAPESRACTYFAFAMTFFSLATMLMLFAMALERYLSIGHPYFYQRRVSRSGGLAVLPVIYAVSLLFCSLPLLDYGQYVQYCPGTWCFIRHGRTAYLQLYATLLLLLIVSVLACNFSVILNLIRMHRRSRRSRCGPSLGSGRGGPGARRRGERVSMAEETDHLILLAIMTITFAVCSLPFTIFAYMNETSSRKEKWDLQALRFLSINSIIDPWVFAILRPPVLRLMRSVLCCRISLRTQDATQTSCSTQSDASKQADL

[9] = physchem; details: pH 2, simulated gastric fluid, kinetic from dmso stock

Row | Solubility in SGF [1] | Aqueous Solubility [2] [µM] | Compound | also measured
1 | 10^d μM | 10 | COc1ccccc1-c1ccc(C(=O)NCCc2c(C)[nH]c3ccccc23)cc1F [Compound 14b, 2-Fluoro-2′-methoxy-N-(2-(2-methyl-1H-indol-3-yl)ethyl)-[1,1′-biphenyl]-4-carboxamide] | –
2 | – | 5 | Cc1cc(C)nc(Nc2ncc(C(=O)NCCc3c(C)[nH]c4ccc(F)cc34)cn2)c1 [Compound 24a, 2-((4,6-Dimethylpyridin-2-yl)amino)-N-(2-(5-fluoro-2-methyl-1H-indol-3-yl)ethyl)pyrimidine-5-carboxamide] | S.I (IP/EP2) [3]: 770
3 | – | 25 | Cc1ccnc(Nc2ncc(C(=O)NCCc3c(C)[nH]c4ccccc34)cn2)c1 [Compound 20b, N-(2-(2-Methyl-1H-indol-3-yl)ethyl)-2-((4-methylpyridin-2-yl)amino)pyramidine-5-carboxamide] | MLM T½ ([6]; 1 μM compound, 0.125 mg/mL liver microsomes, NADPH): 8 min
4 | – | 25 | Cc1cccc(Nc2ncc(C(=O)NCCc3c(C)[nH]c4ccccc34)cn2)n1 [Compound 20e, N-(2-(2-Methyl-1H-indol-3-yl)ethyl)-2-((6-methylpyridin-2-yl)amino)pyrimidine-5-carboxamide] | S.I (EP4/EP2) [7]: >1500; S.I (IP/EP2) [3]: >1500
5 | – | 17 | Cc1[nH]c2ccccc2c1CCNC(=O)c1cnc(Nc2cccnc2)nc1 [Compound 20q, N-(2-(2-Methyl-1H-indol-3-yl)ethyl)-2-(pyridin-3-ylamino)pyrimidine-5-carboxamide] | Kb [8]: 8.3 nM; S.I (EP4/EP2) [7]: >1200; S.I (IP/EP2) [3]: >1200
6 | – | 45 | Cc1cc(C)nc(Nc2ncc(C(=O)NCCc3c(C(F)(F)F)[nH]c4ccccc34)cn2)c1 [Compound 24f, 2-((4,6-Dimethylpyridin-2-yl)amino)-N-(2-(2-(trifluoromethyl)-1H-indol-3-yl)ethyl)pyrimidine-5-carboxamide] | Kb [8]: 66 nM; fold reduced EP2 potency in comparison to 20o ([8]; comparator 20o): 8 fold
7 | – | 41 | Cc1[nH]c2ccccc2c1CCNC(=O)c1cnc(Nc2cccc(F)n2)nc1 [Compound 20f, 2-((6-Fluoropyridin-2-yl)amino)-N-(2-(2-methyl-1H-indol-3-yl)ethyl)pyrimidine-5-carboxamide] | fold higher half-life in liver microsomes ([6]; 24i vs 20o, 20c vs 20b, 20f vs 20e): 8 fold
8 | – | 71 | COc1ccccc1-c1ncc(C(=O)NCCc2c(C)[nH]c3ccccc23)cn1 [Compound 14a, 2-(2-Methoxyphenyl)-N-(2-(2-methyl-1H-indol-3-yl)ethyl)pyrimidine-5-carboxamide] | half-life [5]: < 1 h; solubility [9]: > 100 µM; S.I (EP4/EP2) [7]: 517; S.I (IP/EP2) [3]: 730
9 | – | 20 | Cc1cc(C)nc(Nc2ncc(C(=O)NCCc3c(C)[nH]c4ccc(Cl)cc34)cn2)c1 [Compound 24b, N-(2-(5-Chloro-2-methyl-1H-indol-3-yl)ethyl)-2-((4,6-dimethylpyridin-2-yl)amino)pyrimidine-5-carboxamide] | Kb [8]: 28.3 nM; S.I (EP4/EP2) [7]: >350; S.I (IP/EP2) [3]: >350
10 | – | 100 | Cc1ccc(Nc2ncc(C(=O)NCCc3c(C)[nH]c4ccccc34)cn2)c(C)n1 [Compound 20r, 2-((2,6-Dimethylpyridin-3-yl)amino)-N-(2-(2-methyl-1H-indol-3-yl)ethyl)pyrimidine-5-carboxamide] | fold reduced EP2 potency ([8]; 20f vs. 20c, 20n vs. 20e, comparator of 20g and 20r not stated): 10 fold; Kb [8]: 88.1 nM
11 | 10 µM (≈ 4.12 µg/mL) | 10 | CC(=O)Nc1ccc(-c2ccc(C(=O)NCCc3c(C)[nH]c4ccccc34)nc2)cc1 [Compound 11c, 5-(4-Acetamidophenyl)-N-(2-(2-methyl-1H-indol-3-yl)ethyl)picolinamide] | –
12 | 10 µM (≈ 4.15 µg/mL) | 10 | COc1cc(OC)cc(-c2ccc(C(=O)NCCc3c(C)[nH]c4ccccc34)nc2)c1 [Compound 11b, 5-(3,5-Dimethoxyphenyl)-N-(2-(2-methyl-1H-indol-3-yl)ethyl)picolinamide] | fold less potent than equivalent derivative [8]: 11 fold
13 | 14 µM (≈ 5.4 µg/mL) | 14 | COc1cccc(-c2ccc(C(=O)NCCc3c(C)[nH]c4ccccc34)nc2)c1 [Compound 11a, 5-(3-Methoxyphenyl)-N-(2-(2-methyl-1H-indol-3-yl)ethyl)picolinamide] | fold less potent than equivalent derivative [8]: 4 fold

The next lines start with the molecule.

Row | Compound | Solubility in SGF [1] | Aqueous Solubility [2] [µM] | also measured
14 | Cc1[nH]c2ccccc2c1CCNC(=O)c1ccc(-c2ccccc2)nc1 [Compound 8a, N-(2-(2-Methyl-1H-indol-3-yl)ethyl)-6-phenylnicotinamide] | >100 µM | 25 | –
15 | Cc1cc(C)nc(Nc2ncc(C(=O)NCCc3c(C)[nH]c4ccccc34)cn2)c1 [Compound 20o.HCl, 2-((4,6-Dimethylpyridin-2-yl)amino)-N-(2-(2-methyl-1H-indol-3-yl)ethyl)pyrimidine-5-carboxamide.Hydrochloride] | – | – | water pH after dissolving ([4]; 2 mg/mL in neat water, starting pH 6.4): 3.5; water solubility ([4]; thermodynamic solubility in water, HCl salts): 1000 µg/mL; solubility ([4]; water, thermodynamic from solid): 1100 to 1200 µg/mL
16 | COc1cc(OC)cc(-c2ccc(C(=O)NCCc3c(C)[nH]c4ccccc34)cn2)c1 [Compound 8g, 6-(3,5-Dimethoxyphenyl)-N-(2-(2-methyl-1H-indol-3-yl)ethyl)nicotinamide] | >100 µM | 12 | half-life [5]: < 1 h
17 | Cc1[nH]c2ccccc2c1CCNC(=O)c1ccc(-c2ccccc2F)nc1 [Compound 8e, 6-(2-Fluorophenyl)-N-(2-(2-methyl-1H-indol-3-yl)ethyl)nicotinamide] | >100 µM | 22 | fold less EP2 potency in comparison to 2a ([8]; comparator 2a): 2 fold; fold less EP2 potency in comparison to 8c ([8]; comparator 8c (14b vs. 14c or 8c)): 4 fold
18 | CC(=O)Nc1ccc(-c2ccc(C(=O)NCCc3c(C)[nH]c4ccccc34)cn2)cc1 [Compound 8f, 6-(4-Acetamidophenyl)-N-(2-(2-methyl-1H-indol-3-yl)ethyl)nicotinamide] | >100 µM | 25 | –
19 | COc1ccccc1-c1ccc(C(=O)NCCc2c(C)[nH]c3ccccc23)cn1 [Compound 8c, 6-(2-Methoxyphenyl)-N-(2-(2-methyl-1H-indol-3-yl)ethyl)nicotinamide] | >100 µM | 28 | half-life [5]: < 1 h
20 | COc1cccc(-c2ccc(C(=O)NCCc3c(C)[nH]c4ccccc34)cn2)c1 [Compound 8b, 6-(3-Methoxyphenyl)-N-(2-(2-methyl-1H-indol-3-yl)ethyl)nicotinamide] | >100 µM | 13 | –
21 | Cc1cc(C)nc(Nc2ncc(C(=O)NCCc3c(C)[nH]c4c(F)cc(F)cc34)cn2)c1 [Compound 24c, N-(2-(5,7-Difluoro-2-methyl-1H-indol-3-yl)ethyl)-2-((4,6-dimethylpyridin-2-yl)amino)pyrimidine-5-carboxamide] | – | – | Kb [8]: 20 nM; solubility [9]: > 100 µM; S.I (IP/EP2) [3]: >500
22 | Cc1[nH]c2ccccc2c1CCNC(=O)c1ccc(-c2ccccc2O)nc1 [Compound 8d, 6-(2-Hydroxyphenyl)-N-(2-(2-methyl-1H-indol-3-yl)ethyl)nicotinamide] | 50^c μM | 8 | –
